Results on 19 substances are retold here after US9006174B2 (priority 2009, dated 2015).

Ends that are not written are not given here.

The subject of the first data set is cRBCs. Description: Haemolytic activity, chicken erythrocytes. The note with it: 1 h at 37° C. The class given is cell-based.
As to RFGRFLRKIRRFRPKVTITIQ [CMAP1-21], the “Toxicity Haemolysis (cRBCs)” value was “− (<25% dead cells)”.

Turning to “RFGRFLRKIRRFRPK [CMAP(1-15), RFGRFLRKIRRFRPK]”, the “Toxicity Haemolysis (cRBCs)” value is “− (<25% dead cells)”.

Consider “RFGRFLRKIRRFRPKVTITIQGSARF-NH2 [CMAP26-NH2, reference compound]”, for which the “Toxicity Haemolysis (cRBCs)” value is “+/− (>25% dead cells)”.

The test system of the next data set is hRBCs.
Assay: not given
As to conditions: human erythrocytes, 1 h at 37° C.
With “RFGRFLRKIRRFRPKVTITIQGSARFG [CMAP27, reference compound]”, the “Toxicity Haemolysis (hRBCs)” value is on record as “− (<25% dead cells)”.

“RFGRLLRKIRRFRPK [CMAP(1-15) (F5→L), RFGRLLRKIRRFRPK]”: the “Toxicity Haemolysis (hRBCs)” value is reported as “− (<25% dead cells)”.

As for FLRKIRRFRPK [CMAP(5-15), FLRKIRRFRPK], the “Toxicity Haemolysis (hRBCs)” value is “− (<25% dead cells)”.

As for “FGRFLRKIRRFRPK [CMAP(2-15), FGRFLRKIRRFRPK]”, the “Toxicity Haemolysis (hRBCs)” value was “−− (<5% dead cells)”.

For “RWGRFLRKIRRFRPK [CMAP(1-15) (F2→W), RWGRFLRKIRRFRPK]”, the “Toxicity Haemolysis (hRBCs)” value is on record as “−− (<5% dead cells)”.

Turning to RFGRFLRKIR [CMAP(l-l0), RFGRFLRKIR], the “Toxicity Haemolysis (hRBCs)” value was “−− (<5% dead cells)”.

In the case of “RLGRLLRKIRRLRPK [CMAP(1-15) (3xF→L), RLGRLLRKIRRLRPK]”, the “Toxicity Haemolysis (hRBCs)” value is reported as “− (<25% dead cells)”.

In the case of RFGRFLRKIRRFRPKVTITIQGSARF [CMAP26], the “Toxicity Haemolysis (hRBCs)” value was “++ (>75% dead cells)”.

Regarding “RFGRFLRKIRRFRPK [CMAP(1-15), RFGRFLRKIRRFRPK]”, the “Toxicity Haemolysis (hRBCs)” value is “−− (<5% dead cells)”.

RFGRFLRKIRRF [CMAP(1-12), RFGRFLRKIRRF]: the “Toxicity Haemolysis (hRBCs)” value is “−− (<5% dead cells)”.

As for “RWGRWLRKIRRWRPK [CMAP(1-15) (3xF→W), RWGRWLRKIRRWRPK]”, the “Toxicity Haemolysis (hRBCs)” value is recorded as “− (<25% dead cells)”.

For the substance “RFGRFLRKIRRFR [CMAP(1-13), RFGRFLRKIRRFR]”, the “Toxicity Haemolysis (hRBCs)” value was “−− (<5% dead cells)”.

Regarding RFGRFLRKIRR [CMAP(l-ll), RFGRFLRKIRR], the “Toxicity Haemolysis (hRBCs)” value is recorded as “+/− (>25% dead cells)”.

For “RFGRWLRKIRRFRPK [CMAP(1-15) (F5→W), RFGRWLRKIRRFRPK]”, the “Toxicity Haemolysis (hRBCs)” value is listed as “−− (<5% dead cells)”.

Consider RFLRKIRRFRPK [CMAP(4-15), RFLRKIRRFRPK], for which the “Toxicity Haemolysis (hRBCs)” value is “+/− (>25% dead cells)”.

Regarding “RLGRFLRKIRRFRPK [CMAP(1-15) (F2→L), RLGRFLRKIRRFRPK]”, the “Toxicity Haemolysis (hRBCs)” value is given as “− (<25% dead cells)”.

Take “GRFLRKIRRFRPK [CMAP(3-15), GRFLRKIRRFRPK]”: the “Toxicity Haemolysis (hRBCs)” value is listed as “−− (<5% dead cells)”.
